Experimental findings from patent US9193722B2, “Tri-cyclic pyrazolopyridine kinase inhibitors” (Vertex Pharmaceuticals Incorporated, priority 2008, dated 2015) are described below.

Some results are limits rather than exact numbers.

What all share (assay type): biochemical
The target in one experiment is PKC theta kinase (Homo sapiens, UniProt Q04759). As to the kind of experiment: PKC theta kinase inhibition, coupled-enzyme (NADH absorbance) assay, Ki. Particulars: 240 μM ATP, 18 nM PKC theta kinase, 30° C. Summed up: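 Enzyme and compound equilibrated 10 min at 30 °C before reaction in HEPES pH 7.5 buffer with MgCl2, NaCl, EDTA and Brij. Activity tracked as NADH loss at 340 nm through a coupled system. Initial-rate data fitted by non-linear regression to give Ki.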
Sequence of PKC theta kinase (Q04759 whole entry): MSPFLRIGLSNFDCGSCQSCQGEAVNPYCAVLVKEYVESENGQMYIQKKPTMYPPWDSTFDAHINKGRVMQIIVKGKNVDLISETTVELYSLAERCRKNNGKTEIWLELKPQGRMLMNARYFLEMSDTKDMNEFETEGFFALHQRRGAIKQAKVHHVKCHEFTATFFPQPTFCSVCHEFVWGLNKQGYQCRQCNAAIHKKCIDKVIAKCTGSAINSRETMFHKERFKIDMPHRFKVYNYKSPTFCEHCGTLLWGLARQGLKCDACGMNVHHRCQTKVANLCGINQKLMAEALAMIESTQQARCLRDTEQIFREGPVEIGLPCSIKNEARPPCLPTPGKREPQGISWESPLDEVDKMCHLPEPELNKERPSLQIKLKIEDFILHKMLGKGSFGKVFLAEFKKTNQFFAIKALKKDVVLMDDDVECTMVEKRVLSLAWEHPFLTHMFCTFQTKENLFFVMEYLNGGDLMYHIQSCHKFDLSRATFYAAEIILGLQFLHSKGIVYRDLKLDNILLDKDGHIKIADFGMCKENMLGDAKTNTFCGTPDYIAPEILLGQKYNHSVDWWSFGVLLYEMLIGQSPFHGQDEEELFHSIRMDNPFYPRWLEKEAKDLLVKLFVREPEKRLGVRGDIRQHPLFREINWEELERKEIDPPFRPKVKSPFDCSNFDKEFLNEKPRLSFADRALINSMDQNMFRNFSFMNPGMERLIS

A further experiment has as its target PKC delta kinase (Homo sapiens, UniProt Q05655). The experiment is described as follows: PKC delta kinase inhibition, coupled-enzyme (NADH absorbance) assay, Ki. Particulars: 150 μM ATP, 46 nM PKC delta kinase, 30° C.; read-out: Ki PKC delta. Summed up: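 Enzyme and compound pre-equilibrated 10 min at 30° C before adding ATP to 150 μM final. Buffer: HEPES pH 7.5 (100 mM), 10 mM MgCl2, 25 mM NaCl, 0.1 mM EDTA, 0.01% Brij.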

For a further experiment, the target named is PKC alpha kinase (Homo sapiens, UniProt P17252). The experiment is described as follows: PKC alpha kinase inhibition, coupled-enzyme (NADH absorbance) assay, Ki. To be noted: 130 μM ATP, 4.5 nM PKC alpha kinase, 30° C. Summed up: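 Ki derived by non-linear regression of initial rates from a coupled assay tracking NADH absorbance at 340 nm over 15 min at 30 °C. ATP was 130 μM final after a 10 min compound–enzyme preincubation in HEPES pH 7.5 buffer with MgCl2, CaCl2, NaCl, EDTA and Brij.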

Sequence of PKC delta kinase (Q05655 whole entry): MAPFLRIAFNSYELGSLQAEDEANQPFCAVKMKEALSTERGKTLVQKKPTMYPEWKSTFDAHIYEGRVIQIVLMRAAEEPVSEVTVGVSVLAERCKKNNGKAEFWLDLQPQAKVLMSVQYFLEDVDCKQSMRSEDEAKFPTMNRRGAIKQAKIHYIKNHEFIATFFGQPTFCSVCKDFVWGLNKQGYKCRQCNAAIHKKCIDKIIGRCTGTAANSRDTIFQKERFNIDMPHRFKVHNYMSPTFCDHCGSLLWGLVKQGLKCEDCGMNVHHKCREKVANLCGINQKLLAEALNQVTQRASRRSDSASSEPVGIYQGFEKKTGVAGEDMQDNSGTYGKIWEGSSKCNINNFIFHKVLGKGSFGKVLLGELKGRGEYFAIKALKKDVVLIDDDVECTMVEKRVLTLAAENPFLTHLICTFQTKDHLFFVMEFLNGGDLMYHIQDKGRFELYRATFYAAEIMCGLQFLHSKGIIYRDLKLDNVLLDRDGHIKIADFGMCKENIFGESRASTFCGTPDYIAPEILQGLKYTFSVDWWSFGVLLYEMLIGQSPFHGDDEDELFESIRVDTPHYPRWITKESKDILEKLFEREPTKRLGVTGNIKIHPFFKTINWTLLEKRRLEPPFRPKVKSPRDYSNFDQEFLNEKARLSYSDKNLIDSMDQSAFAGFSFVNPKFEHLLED

`CC(C)C(O)(C1CN(c2ccc(F)c(-c3n[nH]c4ncccc34)n2)CCN1)C(F)(F)F` (stereo not drawn) [Compound 207]: the Ki on PKC theta kinase is less than 50 nM; on PKC delta kinase, less than 2800 nM; at PKC alpha kinase, more than 1250 nM.
The matching figures for `Cc1cc(C)c(CC2CN(c3cccc(-c4n[nH]c5ncccc45)n3)CCN2)c(C)c1` (stereo not drawn) [Compound 69]: more than 700 nM, more than 2000 nM and more than 1250 nM.
Take `CC(C)C[C@H]1CN(c2ccc(F)c(-c3n[nH]c4ncccc34)n2)CC[C@@H]1O` [Compound 325]: the Ki at PKC theta kinase is less than 500 nM; on PKC delta kinase, more than 1250 nM; on PKC alpha kinase it was more than 1250 nM.
For `C[C@@H]1CNCCN1c1cccc(-c2n[nH]c3ncccc23)n1` [Compound 31], the Ki at PKC theta kinase is less than 500 nM; on PKC delta kinase it was less than 2800 nM; at PKC alpha kinase it was more than 1250 nM.
Regarding `CC(C)C(C)(O)C1CN(c2ccc(Cl)c(-c3n[nH]c4ncccc34)n2)CCN1` (stereo not drawn) [Compound 437], the Ki at PKC theta kinase was less than 50 nM; on PKC delta kinase it was less than 2800 nM; at PKC alpha kinase, more than 1250 nM.
For the molecule `Cc1ccccc1C1CN(c2ccc(C(F)(F)F)c(-c3n[nH]c4ncccc34)n2)CCN1` (stereo not drawn) [Compound 124], the Ki at PKC theta kinase was less than 500 nM; on PKC delta kinase it was more than 1250 nM; at PKC alpha kinase, more than 1250 nM.
On to `FC(F)(F)c1ccc(N2CCC(Nc3ccccc3)CC2)nc1-c1n[nH]c2ncccc12` [Compound 358], for which the Ki at PKC theta kinase was more than 700 nM; on PKC delta kinase it was more than 1250 nM; at PKC alpha kinase it was more than 1250 nM.
Take `FC(F)(F)c1cc(-c2n[nH]c3ncccc23)nc(N2CCNCC2)c1` [Compound 94]: the figures for the Ki at PKC theta kinase, at PKC delta kinase and on PKC alpha kinase were more than 700 nM, more than 2000 nM and more than 1250 nM, respectively.
The matching figures for `CC(C)CC1(C)CN(c2ccc(C(F)(F)F)c(-c3n[nH]c4ncccc34)n2)CCN1` (stereo not drawn) [Compound 82]: less than 50 nM, less than 500 nM and less than 500 nM.
The matching figures for `OC1(C2CN(c3ccc(F)c(-c4n[nH]c5ncccc45)n3)CCN2)CCCC1` (stereo not drawn) [Compound 245]: less than 50 nM, less than 500 nM and more than 1250 nM.
With `CC(C)C[C@H]1CN(c2ccc(C(F)(F)F)c(-c3n[nH]c4ncc(F)cc34)n2)CCN1` [Compound 44], the results for the Ki at PKC theta kinase, at PKC delta kinase and on PKC alpha kinase were less than 50 nM, less than 2800 nM and less than 2800 nM, respectively.
Take `CC1CN(c2ccc(C(F)(F)F)c(-c3n[nH]c4ncccc34)n2)CC(C2(O)CCC2)N1` (stereo not drawn) [Compound 261]: the figures for the Ki on PKC theta kinase, on PKC delta kinase and at PKC alpha kinase were more than 700 nM, more than 1250 nM and more than 1250 nM, respectively.
For the molecule `CC(C)C[C@@H]1C[C@H](N)CN(c2ccc(C(F)(F)F)c(-c3n[nH]c4ncccc34)n2)C1` [Compound 364], the Ki is less than 500 nM at PKC theta kinase, more than 1250 nM at PKC delta kinase and more than 1250 nM at PKC alpha kinase.
On to `CC(C)(F)CC1CN(c2cccc(-c3n[nH]c4ncccc34)n2)CCN1` (stereo not drawn) [Compound 71], for which the Ki at PKC theta kinase is less than 50 nM; on PKC delta kinase, less than 500 nM; on PKC alpha kinase, more than 1250 nM.
Taken in the same sequence, the figures for `CC1CN(c2ccc(C(F)(F)F)c(-c3n[nH]c4ncccc34)n2)CC1CN` (stereo not drawn) [Compound 332] were more than 700 nM, more than 1250 nM and more than 1250 nM.
The matching figures for `FC(F)(F)c1ccc(N2CCN[C@@H](Cc3ccccc3)C2)nc1-c1n[nH]c2ncccc12` [Compound 121]: less than 500 nM, more than 1250 nM and more than 1250 nM.
The matching figures for `CC(C)C(C)(O)C1CN(c2cncc(-c3n[nH]c4ncccc34)n2)CCN1` (stereo not drawn) [Compound 426]: less than 50 nM, less than 500 nM and less than 2800 nM.
As to `Fc1ccc(C2CN(c3ccc(C(F)(F)F)c(-c4n[nH]c5ncccc45)n3)CCN2)cc1` (stereo not drawn) [Compound 171], the Ki at PKC theta kinase is less than 500 nM; at PKC delta kinase it was more than 1250 nM; on PKC alpha kinase it was more than 1250 nM.
As for `c1cc(-c2n[nH]c3ncccc23)nc(N2CCOCC2)c1` [Compound 27], the Ki at PKC theta kinase was more than 700 nM; at PKC delta kinase, more than 2000 nM; on PKC alpha kinase it was less than 2800 nM.
The matching figures for `OC1(C2CN(c3ccc(F)c(-c4n[nH]c5ncccc45)n3)CCN2)COC1` (stereo not drawn) [Compound 230]: less than 50 nM, more than 1250 nM and more than 1250 nM.
Taken in the same sequence, the figures for `CC(C)(C)C(N)C1CCCN(c2ccc(F)c(-c3n[nH]c4ncccc34)n2)C1` (stereo not drawn) [Compound 331] were less than 500 nM, less than 2800 nM and more than 1250 nM.
The matching figures for `CC(C)CC1(CN)CN(c2ccc(C(F)(F)F)c(-c3n[nH]c4ncccc34)n2)C1` [Compound 413]: more than 700 nM, more than 1250 nM and more than 1250 nM.
As for `FC(F)(F)c1ccc(N2CCN[C@@H](CC3CC3)C2)nc1-c1n[nH]c2ncccc12` [Compound 165], the Ki on PKC theta kinase was less than 500 nM; on PKC delta kinase, more than 1250 nM; on PKC alpha kinase, more than 1250 nM.
In the case of `C=C(F)c1cc(-c2n[nH]c3ncccc23)nc(N2CCNCC2)c1` [Compound 92], the results for the Ki on PKC theta kinase, on PKC delta kinase and on PKC alpha kinase were less than 500 nM, less than 500 nM and more than 1250 nM, respectively.
In the case of `Fc1cnc2[nH]nc(-c3nc(N4CCNCC4)ccc3C(F)(F)F)c2c1` [Compound 45], the Ki on PKC theta kinase was less than 500 nM; at PKC delta kinase, more than 2000 nM; at PKC alpha kinase, more than 1250 nM.
Take `NC1CCN(c2ccc(C(F)(F)F)c(-c3n[nH]c4ncccc34)n2)CC12CCCCC2` (stereo not drawn) [Compound 461]: the results for the Ki on PKC theta kinase, at PKC delta kinase and at PKC alpha kinase were less than 50 nM, less than 500 nM and more than 1250 nM, respectively.
Taken in the same sequence, the figures for `NC(=O)CC1CN(c2ccc(C(F)(F)F)c(-c3n[nH]c4ncccc34)n2)CCN1` (stereo not drawn) [Compound 209] were less than 500 nM, more than 1250 nM and more than 1250 nM.
Taken in the same sequence, the figures for `c1ccc(C[C@H]2CN(c3cccc(-c4n[nH]c5ncccc45)n3)CCN2)cc1` [Compound 37] were less than 50 nM, less than 2800 nM and more than 1250 nM.
The matching figures for `O=C1CN(c2ccc(C(F)(F)F)c(-c3n[nH]c4ncccc34)n2)CCN1` [Compound 194]: more than 700 nM, more than 1250 nM and more than 1250 nM.
Turning to `Fc1ccc(N2CCC3(CCNC3)C2)nc1-c1n[nH]c2ncccc12` (stereo not drawn) [Compound 312], the Ki on PKC theta kinase was more than 700 nM; on PKC delta kinase, more than 1250 nM; at PKC alpha kinase, more than 1250 nM.
For `C=Cc1ccc(N2CCNCC2)nc1-c1n[nH]c2ncccc12` [Compound 52], the Ki is less than 500 nM on PKC theta kinase, less than 2800 nM on PKC delta kinase and more than 1250 nM at PKC alpha kinase.
The matching figures for `CC(C)C[C@H]1CN(c2ccc(C(F)(F)F)c(-c3n[nH]c4ncccc34)n2)C[C@@H](C)N1` [Compound 203]: less than 50 nM, less than 500 nM and less than 500 nM.
Taken in the same sequence, the figures for `CC(C)(C(N)C1CCCN(c2ccc(F)c(-c3n[nH]c4ncccc34)n2)C1)C(F)(F)F` (stereo not drawn) [Compound 390] were less than 50 nM, more than 1250 nM and more than 1250 nM.
Taken in the same sequence, the figures for `CCC(C)(C)C(N)C1CCCN(c2ccc(F)c(-c3n[nH]c4ncccc34)n2)C1` (stereo not drawn) [Compound 378] were less than 50 nM, less than 500 nM and less than 2800 nM.
